Data from patent US20170305894A1, “PPAR AGONISTS, COMPOUNDS, PHARMACEUTICAL COMPOSITIONS, AND METHODS OF USE THEREOF” (priority 2014, published 2017).
Read-outs that look alike come from different tables or passages of the source.

What was measured:
[1] = target: T1, PPARdelta (Homo sapiens, UniProt Q03181); test: NHR Protein Interaction Biosensor assay (PathHunter NHR cell lines, agonist format); format: cell-based
T1 construct: expressed in transfected cells
T1 sequence (Q03181 1-441): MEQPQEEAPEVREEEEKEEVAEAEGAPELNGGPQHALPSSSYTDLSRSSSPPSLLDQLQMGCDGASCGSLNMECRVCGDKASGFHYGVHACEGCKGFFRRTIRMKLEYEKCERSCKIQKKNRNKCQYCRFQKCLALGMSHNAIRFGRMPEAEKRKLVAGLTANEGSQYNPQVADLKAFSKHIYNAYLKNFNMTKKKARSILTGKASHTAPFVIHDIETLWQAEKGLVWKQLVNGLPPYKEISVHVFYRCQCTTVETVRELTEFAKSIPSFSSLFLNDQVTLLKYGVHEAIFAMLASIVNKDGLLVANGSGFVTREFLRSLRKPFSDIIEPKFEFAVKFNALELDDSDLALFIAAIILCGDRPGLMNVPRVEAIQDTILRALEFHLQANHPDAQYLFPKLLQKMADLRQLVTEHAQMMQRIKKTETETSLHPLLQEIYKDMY
Experimental: (2) Nuclear Hormone Receptor (NHR) Assays
PathHunter NHR cell lines were expanded from freezer stocks according to standard procedures. Cells were seeded in a total volume of 20 μL into white walled, 384-well microplates and incubated at 37° C. for the appropriate time prior to testing. Assay media contained charcoal-dextran filtered serum to reduce the level of hormones present.
For agonist determination, cells were incubated with sample to induce response. Intermediate dilution of sample stocks was performed to generate 5× sample in assay buffer. […] Final assay vehicle concentration was 1%.
Microplates were read following signal generation with a PerkinElmer Envision™ instrument for chemiluminescent signal detection.
Compound activity was analyzed using CBIS data analysis suite (ChemInnovation, CA). For agonist mode assays, percentage activity was calculated using the following formula:
% Activity=100%×(mean RLU of test sample−mean RLU of vehicle control)/(mean MAX control ligand−mean RLU of vehicle control).

[2] = target: T2, Human PPARδ (Homo sapiens, UniProt Q03181); test: PPARδ activity screen: GAL4-PPARδ LBD luciferase transactivation in CV-1 cells; format: cell-based
T2 construct: (PPARδ amino acid 128 to C-terminus); expressed in transfected cells; host or cells: CV-1 cells
T2 sequence (Q03181 128-441 limits assumed): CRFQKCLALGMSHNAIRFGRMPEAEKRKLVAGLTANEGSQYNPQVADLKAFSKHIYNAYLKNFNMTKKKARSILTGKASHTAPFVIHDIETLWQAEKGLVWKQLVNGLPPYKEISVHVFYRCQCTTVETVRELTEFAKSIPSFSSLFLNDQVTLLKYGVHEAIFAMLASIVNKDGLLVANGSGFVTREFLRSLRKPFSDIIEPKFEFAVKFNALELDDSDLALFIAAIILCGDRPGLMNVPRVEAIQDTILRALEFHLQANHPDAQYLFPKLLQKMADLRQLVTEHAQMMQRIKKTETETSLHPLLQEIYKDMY
Experimental: CV-1 cells were grown in DMEM+10% charcoal stripped FCS. Cells were seeded into 384-well plates the day before transfection to give a confluency of 50-80% at transfection. A total of […] containing 0.64 micrograms pCMX-PPARDelta LBD, 0.1 micrograms pCMXβGal, 0.08 micrograms pGLMH2004 reporter and 0.02 micrograms pCMX empty vector was transfected per well using FuGene transfection reagent according to the manufacturer's instructions (Roche). Cells were allowed to express protein for 48 h followed by addition of compound.
Human PPARδ was used to PCR amplify the PPARδ LBD. […] Ensuing fusions were verified by sequencing.
Compounds: All compounds were dissolved in DMSO and diluted 1:1000 upon addition to the cells. Compounds were tested in quadruple in concentrations ranging from 0.001 to 100 μM. Cells were treated with compound for 24 h followed by luciferase assay. Each compound was tested in at least two separate experiments.
The activity of a compound is calculated as fold induction compared to an untreated sample. For each compound the efficacy (maximal activity) is given as a relative activity compared to GW501516, a PPARδ agonist. […] EC50 values were calculated via non-linear regression using GraphPad PRISM (GraphPad Software, San Diego, Calif.).

[3] = PathHunter NHR cells, agonist format, read-out: NHR Protein Interaction Biosenor assay, PPARdelta EC50
[4] = CV-1 cells, GAL4-PPARδ LBD luciferase reporter, compound for 24 h, read-out: PPAR delta transactivation EC50

Row | Compound | EC50 [1, 3] [nM] | EC50 [2, 4] [nM] | EC50 [1] [nM] | EC50 [2] [nM]
1 | C/C(=C\COc1ccccc1Cn1c(C)cnc1-c1ccc(-c2ccco2)cc1)CCC(=O)O [Compound 8e, (E)-6-(2-((2-(4-(furan-2-yl)phenyl)-5-methyl-1H-imidazol-1-yl)methyl)phenoxy)-4-methylhex-4-enoic acid] | 0.79 | 1 |  | 
2 | Cc1cnc(-c2ccc(C#CC(F)(F)F)cc2)n1Cc1ccccc1OCCCCCC(=O)O [Compound 8g, 6-(2-((5-methyl-2-(4-(3,3,3-trifluoroprop-1-yn-1-yl)phenyl)-1H-imidazol-1-yl)methyl)phenoxy)hexanoic acid] | 0.65 | 8.3 |  | 
3 | Cc1cnc(-c2ccc(OC(F)(F)F)cc2)n1Cc1ccccc1OCCCCCC(=O)O [Compound 8h, 6-(2-((5-methyl-2-(4-(trifluoromethoxy)phenyl)-1H-imidazol-1-yl)methyl)phenoxy)hexanoic acid] | 1.49 | 0.94 |  | 
4 | Cc1cn(Cc2ccccc2OCCCCCC(=O)O)c(-c2ccc(-c3ccc(C)o3)cc2)n1 [Compound 8j, 6-(2-((4-methyl-2-(4-(5-methylfuran-2-yl)phenyl)-1H-imidazol-1-yl)methyl)phenoxy)hexanoic acid] | 5.01 | 56 |  | 
5 | O=C(O)CCCCCOc1ccccc1Cn1ccnc1-c1ccc(-c2ccco2)cc1 [Compound 8l, 6-(2-((2-(4-(furan-2-yl)phenyl)-1H-imidazol-1-yl)methyl)phenoxy)hexanoic acid] | 1.28 | 9.5 |  | 
6 | C/C(=C\COc1ccccc1Cc1c(C)n[nH]c1-c1ccc(-c2ccco2)cc1)CCC(=O)O [Compound 8p, (E)-6-(2-((5-(4-(furan-2-yl)phenyl)-3-methyl-1H-pyrazol-4-yl)methyl)phenoxy)-4-methylhex-4-enoic acid] |  |  | 4.97 | 1.2
7 | Cc1cnc(-c2ccc(-c3ccco3)cc2)n1Cc1ccccc1CCCCCCC(=O)O [Compound 8q, 7-(2-((2-(4-(furan-2-yl)phenyl)-5-methyl-1H-imidazol-1-yl)methyl)phenyl)heptanoic acid] | 13 | 3.1 |  | 

Other lines, results leading:

Row | EC50 [1, 3] [nM] | EC50 [2, 4] [nM] | EC50 [1] [nM] | EC50 [2] [nM] | Compound
8 | < 0.51 | 0.9 |  |  | Cc1cnc(-c2ccc(-c3ccco3)cc2)n1Cc1ccccc1OCCCCCC(=O)O [Compound 8a, 6-(2-((2-(4-(furan-2-yl)phenyl)-5-methyl-1H-imidazol-1-yl)methyl)phenoxy) hexanoic acid]
9 | 0.58 | 1.2 |  |  | Cc1ccc(-c2ccc(-c3ncc(C)n3Cc3ccccc3OCCCCCC(=O)O)cc2)o1 [Compound 8b, 6-(2-((5-methyl-2-(4-(5-methylfuran-2-yl)phenyl)-1H-imidazol-1-yl)methyl)phenoxy)hexanoic acid]
10 | 0.84 | 4.5 |  |  | Cc1cnc(-c2ccc(-c3ccco3)cc2)n1Cc1ccccc1OCCCCC(C)(C)C(=O)O [Compound 8d, 6-(2-((2-(4-(furan-2-yl)phenyl)-5-methyl-1H-imidazol-1-yl)methyl)phenoxy)-2,2-dimethylhexanoic acid]
11 |  | 15.7 | 13.4 |  | Cc1cn(Cc2ccccc2OCCCCCC(=O)O)c(-c2ccc(-c3ccco3)cc2)n1 [Compound 8i, 6-(2-((2-(4-(furan-2-yl)phenyl)-4-methyl-1H-imidazol-1-yl)methyl)phenoxy) hexanoic acid]
12 | 16.5 | 58 |  |  | Cc1cn(Cc2ccccc2OCCCCC(C)(C)C(=O)O)c(-c2ccc(-c3ccco3)cc2)n1 [Compound 8k, 6-(2-((2-(4-(furan-2-yl)phenyl)-4-methyl-1H-imidazol-1-yl)methyl)phenoxy)-2,2-dimethylhexanoic acid]
13 |  |  | 1.27 | 18 | Cc1nc(-c2ccc(-c3ccco3)cc2)c(Cc2ccccc2OCCCCCC(=O)O)s1 [Compound 8m, 6-(2-((4-(4-(furan-2-yl)phenyl)-2-methylthiazol-5-yl)methyl)phenoxy) hexanoic acid]
14 |  |  | 19.9 | 117 | Cn1cc(Cc2ccccc2OCCCCCC(=O)O)c(-c2ccc(-c3ccco3)cc2)n1 [Compound 8n, 6-(2-((3-(4-(furan-2-yl)phenyl)-1-methyl-1H-pyrazol-4-yl)methyl)phenoxy)hexanoic acid]
15 |  |  | 9.12 | 2.9 | C/C(=C\COc1ccccc1Cc1c(C)noc1-c1ccc(-c2ccco2)cc1)CCC(=O)O [Compound 8o, (E)-6-(2-((5-(4-(furan-2-yl)phenyl)-3-methylisoxazol-4-yl)methyl)phenoxy)-4-methylhex-4-enoic acid]
16 |  | 5.5 |  |  | C/C(=C\COc1ccccc1Cn1c(C)cnc1-c1ccc(Cl)nc1)CCC(=O)O [Compound 8r, (E)-6-(2-((2-(6-chloropyridin-3-yl)-5-methyl-1H-imidazol-1-yl)methyl)phenoxy)-4-methylhex-4-enoic acid]
